Measured values published in the NIST ThermoML archive (doi:10.1021/je060271a).
“And” between values parts separate entries of the source, which are not always exact repeats. Equal values may be shown once.

Conditions: Liquid, Vibrating tube method

CCCCC(=O)OCC(COC(=O)CCCC)(COC(=O)CCCC)COC(=O)CCCC [pentaerythritol tetrapentanoate]
Conditions	mass density
323.15 K, 31189 kPa	1015 kg/m3
323.15 K, 31223 kPa	1015.1 kg/m3
323.15 K, 31256 kPa	1015.1 kg/m3
323.15 K, 31290 kPa	1015.1 kg/m3
323.15 K, 31330 kPa	1015.1 kg/m3
323.15 K, 31363 kPa	1015 kg/m3
323.15 K, 31397 kPa	1015.2 kg/m3
323.15 K, 31438 kPa	1015.2 kg/m3
323.15 K, 31473 kPa	1015.2 kg/m3
323.15 K, 31507 kPa	1015.2 kg/m3
323.15 K, 31540 kPa	1015.3 kg/m3
323.15 K, 31581 kPa	1015.3 kg/m3
323.15 K, 31615 kPa	1015.4 kg/m3
323.15 K, 31649 kPa	1015.3 kg/m3
323.15 K, 31689 kPa	1015.3 kg/m3
323.15 K, 31724 kPa	1015.3 kg/m3
323.15 K, 31758 kPa	1015.3 kg/m3
323.15 K, 31794 kPa	1015.4 kg/m3
323.15 K, 31834 kPa	1015.5 kg/m3
323.15 K, 31869 kPa	1015.4 kg/m3
323.15 K, 31914 kPa	1015.4 kg/m3
323.15 K, 31941 kPa	1015.6 kg/m3
323.15 K, 31982 kPa	1015.4 kg/m3
323.15 K, 32017 kPa	1015.6 kg/m3
323.15 K, 32052 kPa	1015.6 kg/m3
323.15 K, 32093 kPa	1015.7 kg/m3
323.15 K, 32128 kPa	1015.6 kg/m3
323.15 K, 32170 kPa	1015.7 kg/m3
323.15 K, 32206 kPa	1015.7 kg/m3
323.15 K, 32240 kPa	1015.6 kg/m3
323.15 K, 32283 kPa	1015.7 kg/m3
323.15 K, 32318 kPa	1015.7 kg/m3
323.15 K, 32354 kPa	1015.8 kg/m3
323.15 K, 32398 kPa	1015.8 kg/m3
323.15 K, 32434 kPa	1015.8 kg/m3
323.15 K, 32470 kPa	1015.8 kg/m3
323.15 K, 32513 kPa	1015.7 kg/m3
323.15 K, 32550 kPa	1015.9 kg/m3
323.15 K, 32586 kPa	1015.9 kg/m3
323.15 K, 32623 kPa	1015.9 kg/m3
323.15 K, 32666 kPa	1016 kg/m3
323.15 K, 32701 kPa	1016 kg/m3
323.15 K, 32745 kPa	1015.9 kg/m3
323.15 K, 32782 kPa	1016.1 kg/m3
323.15 K, 32820 kPa	1016 kg/m3
323.15 K, 32864 kPa	1016.1 kg/m3
323.15 K, 32902 kPa	1016 kg/m3
323.15 K, 32939 kPa	1016.1 kg/m3
323.15 K, 32977 kPa	1016.1 kg/m3
323.15 K, 33022 kPa	1016.1 kg/m3
323.15 K, 33058 kPa	1016.2 kg/m3
323.15 K, 33096 kPa	1016.1 kg/m3
323.15 K, 33141 kPa	1016.2 kg/m3
323.15 K, 33179 kPa	1016.3 kg/m3
323.15 K, 33224 kPa	1016.3 kg/m3
323.15 K, 33262 kPa	1016.2 kg/m3
323.15 K, 33300 kPa	1016.2 kg/m3
323.15 K, 33338 kPa	1016.3 kg/m3
323.15 K, 33384 kPa	1016.4 kg/m3
323.15 K, 33423 kPa	1016.4 kg/m3
323.15 K, 33462 kPa	1016.3 kg/m3
323.15 K, 33508 kPa	1016.5 kg/m3
323.15 K, 33546 kPa	1016.4 kg/m3
323.15 K, 33593 kPa	1016.5 kg/m3
323.15 K, 33633 kPa	1016.5 kg/m3
323.15 K, 33672 kPa	1016.4 kg/m3
323.15 K, 33712 kPa	1016.4 kg/m3
323.15 K, 33760 kPa	1016.6 kg/m3
323.15 K, 33800 kPa	1016.5 kg/m3
323.15 K, 33841 kPa	1016.5 kg/m3
323.15 K, 33890 kPa	1016.6 kg/m3
323.15 K, 33934 kPa	1016.6 kg/m3
323.15 K, 33978 kPa	1016.7 kg/m3
323.15 K, 34031 kPa	1016.8 kg/m3
323.15 K, 34078 kPa	1016.7 kg/m3
323.15 K, 34125 kPa	1016.7 kg/m3
323.15 K, 34165 kPa	1016.8 kg/m3
323.15 K, 34193 kPa	1016.8 kg/m3
323.15 K, 34215 kPa	1016.8 kg/m3
323.15 K, 34242 kPa	1016.9 kg/m3
323.15 K, 34266 kPa	1016.9 kg/m3
323.15 K, 34294 kPa	1016.8 kg/m3
323.15 K, 34311 kPa	1016.8 kg/m3
323.15 K, 34334 kPa	1016.9 kg/m3
323.15 K, 34359 kPa	1017 kg/m3
323.15 K, 34383 kPa	1016.9 kg/m3
323.15 K, 34414 kPa	1017 kg/m3
323.15 K, 34441 kPa	1016.9 kg/m3
323.15 K, 34467 kPa	1016.9 kg/m3
323.15 K, 34492 kPa	1017 kg/m3
323.15 K, 34493 kPa	1017.1 kg/m3
323.15 K, 34495 kPa	1017 kg/m3
323.15 K, 34498 kPa	1017 kg/m3
323.15 K, 34500 kPa	1017.1 kg/m3
323.15 K, 34502 kPa	1017.1 kg/m3
323.15 K, 34504 kPa	1017.1 kg/m3
323.15 K, 34507 kPa	1017.1 kg/m3
323.15 K, 34510 kPa	1017 kg/m3
343.14 K, 4331.4 kPa	981.8 kg/m3
343.14 K, 4369.7 kPa	981.9 kg/m3
343.14 K, 4403.1 kPa	981.9 kg/m3
343.14 K, 4438.3 kPa	981.9 kg/m3
343.14 K, 4480.3 kPa	982 kg/m3
343.14 K, 4516.3 kPa	982 kg/m3
343.14 K, 4553 kPa	982.1 kg/m3
343.14 K, 4648.1 kPa	982.1 kg/m3
343.14 K, 4649.8 kPa	982.1 kg/m3
343.14 K, 4651.7 kPa	982.2 kg/m3
343.14 K, 4656 kPa	982.2 kg/m3
343.14 K, 4659.5 kPa	982 kg/m3
343.14 K, 4659.7 kPa	982.3 kg/m3 and 982.2 kg/m3
343.14 K, 4661.6 kPa	982.1 kg/m3
343.14 K, 4661.9 kPa	982 kg/m3
343.14 K, 4662.1 kPa	982.1 kg/m3 and 982 kg/m3
343.14 K, 4662.3 kPa	982.1 kg/m3
343.14 K, 4662.4 kPa	982.2 kg/m3
343.14 K, 4662.6 kPa	982.1 kg/m3
343.14 K, 4662.8 kPa	982.1 kg/m3
343.14 K, 4663.1 kPa	982.1 kg/m3
343.14 K, 4671.9 kPa	982.1 kg/m3
343.14 K, 4688.2 kPa	982 kg/m3
343.14 K, 4712.1 kPa	982.2 kg/m3
343.14 K, 4732.7 kPa	982.3 kg/m3
343.14 K, 4774.6 kPa	982.2 kg/m3
343.14 K, 4799.7 kPa	982.2 kg/m3
343.14 K, 4821 kPa	982.3 kg/m3
343.14 K, 4842.3 kPa	982.4 kg/m3
343.14 K, 4868.4 kPa	982.4 kg/m3
343.14 K, 4886.2 kPa	982.3 kg/m3
343.14 K, 4912.7 kPa	982.3 kg/m3
343.14 K, 21139 kPa	994 kg/m3
343.14 K, 21166 kPa	994 kg/m3
343.14 K, 21194 kPa	994.3 kg/m3
343.14 K, 21221 kPa	994 kg/m3
343.14 K, 21398 kPa	994.3 kg/m3
343.14 K, 21431 kPa	994.3 kg/m3
343.14 K, 21460 kPa	994.4 kg/m3
343.14 K, 21488 kPa	994.4 kg/m3
343.14 K, 21522 kPa	994.5 kg/m3
343.14 K, 21550 kPa	994.3 kg/m3
343.14 K, 21578 kPa	994.5 kg/m3
343.14 K, 21611 kPa	994.5 kg/m3
343.14 K, 21640 kPa	994.4 kg/m3
343.14 K, 21669 kPa	994.4 kg/m3
343.14 K, 21702 kPa	994.5 kg/m3
343.14 K, 21732 kPa	994.4 kg/m3
343.14 K, 21760 kPa	994.6 kg/m3
343.14 K, 21795 kPa	994.6 kg/m3
343.14 K, 21825 kPa	994.6 kg/m3
343.14 K, 21856 kPa	994.6 kg/m3
343.14 K, 21885 kPa	994.7 kg/m3
343.14 K, 21920 kPa	994.7 kg/m3
343.14 K, 21949 kPa	994.6 kg/m3
343.14 K, 21979 kPa	994.6 kg/m3
343.14 K, 22008 kPa	994.7 kg/m3
343.14 K, 22044 kPa	994.8 kg/m3
343.14 K, 22073 kPa	994.7 kg/m3
343.14 K, 22109 kPa	994.9 kg/m3
343.14 K, 22139 kPa	994.8 kg/m3
343.14 K, 22169 kPa	994.8 kg/m3
